Assay results taken from PubChem BioAssay (NCI).
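Results reflect a 48-hour exposure of cells in 96-well plates to compound at five concentrations. Definition used: TGI = concentration required for complete inhibition of growth.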

Experiments:
Assay in all cases: NCI tumour cell line growth inhibition, 48 h
MALME-3M melanoma = tested on: MALME-3M melanoma
U251 CNS = tested on: U251 CNS
OVCAR-8 ovarian = tested on: OVCAR-8 ovarian
HCT-116 colon = tested on: HCT-116 colon
SK-MEL-28 melanoma = tested on: SK-MEL-28 melanoma
TK-10 renal = tested on: TK-10 renal
HT29 colon = tested on: HT29 colon
DMS 114 small cell lung = tested on: DMS 114 small cell lung
HOP-62 NSCLC = tested on: HOP-62 NSCLC
HCC-2998 colon = tested on: HCC-2998 colon
OVCAR-5 ovarian = tested on: OVCAR-5 ovarian
CAKI-1 renal = tested on: CAKI-1 renal
SK-MEL-2 melanoma = tested on: SK-MEL-2 melanoma
A549 NSCLC = tested on: A549 NSCLC
KM12 colon = tested on: KM12 colon
HOP-92 NSCLC = tested on: HOP-92 NSCLC
K-562 leukemia = tested on: K-562 leukemia
UACC-62 melanoma = tested on: UACC-62 melanoma
M19-MEL melanoma = tested on: M19-MEL melanoma
SF-539 CNS = tested on: SF-539 CNS
NCI-H460 lung = tested on: NCI-H460 lung
DMS 273 small cell lung = tested on: DMS 273 small cell lung
A498 renal = tested on: A498 renal
MOLT-4 leukemia = tested on: MOLT-4 leukemia
COLO 205 colon = tested on: COLO 205 colon
UACC-257 melanoma = tested on: UACC-257 melanoma
RXF 393 renal = tested on: RXF 393 renal
RXF-631 renal = tested on: RXF-631 renal
UO-31 renal = tested on: UO-31 renal
NCI-H226 lung = tested on: NCI-H226 lung
CCRF-CEM leukemia = tested on: CCRF-CEM leukemia
SF-295 CNS = tested on: SF-295 CNS
SNB-19 CNS = tested on: SNB-19 CNS
HCT-15 colon = tested on: HCT-15 colon
SF-268 CNS = tested on: SF-268 CNS
ACHN renal = tested on: ACHN renal
SW-620 colon = tested on: SW-620 colon
OVCAR-3 ovarian = tested on: OVCAR-3 ovarian
OVCAR-4 ovarian = tested on: OVCAR-4 ovarian
RPMI-8226 leukemia = tested on: RPMI-8226 leukemia
LOX IMVI melanoma = tested on: LOX IMVI melanoma
SNB-75 CNS = tested on: SNB-75 CNS
NCI-H23 lung = tested on: NCI-H23 lung
LXFL 529 NSCLC = tested on: LXFL 529 NSCLC
HL-60(TB) leukemia = tested on: HL-60(TB) leukemia
786-0 renal = tested on: 786-0 renal
IGROV1 ovarian = tested on: IGROV1 ovarian
NCI-H522 lung = tested on: NCI-H522 lung
SN12C renal = tested on: SN12C renal
SNB-78 CNS = tested on: SNB-78 CNS
SK-MEL-5 melanoma = tested on: SK-MEL-5 melanoma
M14 melanoma = tested on: M14 melanoma
KM20L2 colon = tested on: KM20L2 colon
SK-OV-3 ovarian = tested on: SK-OV-3 ovarian
DLD-1 colon = tested on: DLD-1 colon

## NC(=S)NNC(=O)CCC(=O)Nc1ccc(Cl)cc1Cl
MALME-3M melanoma
  TGI: > 100 µM
U251 CNS
  TGI: > 100 µM
OVCAR-8 ovarian
  TGI: > 100 µM
HCT-116 colon
  TGI: > 100 µM
SK-MEL-28 melanoma
  TGI: > 100 µM
TK-10 renal
  TGI: > 100 µM
HT29 colon
  TGI: > 100 µM
DMS 114 small cell lung
  TGI: > 100 µM
HOP-62 NSCLC
  TGI: > 100 µM
HCC-2998 colon
  TGI: > 100 µM
OVCAR-5 ovarian
  TGI: > 100 µM
CAKI-1 renal
  TGI: > 100 µM
SK-MEL-2 melanoma
  TGI: > 100 µM
A549 NSCLC
  TGI: > 100 µM
KM12 colon
  TGI: > 100 µM
HOP-92 NSCLC
  TGI: > 100 µM
K-562 leukemia
  TGI: > 100 µM
UACC-62 melanoma
  TGI: > 100 µM
M19-MEL melanoma
  TGI: > 100 µM
SF-539 CNS
  TGI: > 100 µM
NCI-H460 lung
  TGI: > 100 µM
DMS 273 small cell lung
  TGI: > 100 µM
A498 renal
  TGI: > 100 µM
MOLT-4 leukemia
  TGI: > 100 µM
COLO 205 colon
  TGI: > 100 µM
UACC-257 melanoma
  TGI: > 100 µM
RXF 393 renal
  TGI: > 100 µM
RXF-631 renal
  TGI: > 100 µM
UO-31 renal
  TGI: > 100 µM
NCI-H226 lung
  TGI: > 100 µM
CCRF-CEM leukemia
  TGI: > 100 µM
SF-295 CNS
  TGI: > 100 µM
SNB-19 CNS
  TGI: > 100 µM
HCT-15 colon
  TGI: > 100 µM
SF-268 CNS
  TGI: > 100 µM
ACHN renal
  TGI: > 100 µM
SW-620 colon
  TGI: > 100 µM
OVCAR-3 ovarian
  TGI: > 100 µM
OVCAR-4 ovarian
  TGI: > 100 µM
RPMI-8226 leukemia
  TGI: > 100 µM
LOX IMVI melanoma
  TGI: > 100 µM
SNB-75 CNS
  TGI: > 100 µM
NCI-H23 lung
  TGI: > 100 µM
LXFL 529 NSCLC
  TGI: 86.9 µM
HL-60(TB) leukemia
  TGI: > 100 µM
786-0 renal
  TGI: > 100 µM
IGROV1 ovarian
  TGI: > 100 µM
NCI-H522 lung
  TGI: > 100 µM
SN12C renal
  TGI: > 100 µM
SNB-78 CNS
  TGI: > 100 µM
SK-MEL-5 melanoma
  TGI: > 100 µM
M14 melanoma
  TGI: > 100 µM
KM20L2 colon
  TGI: > 100 µM
SK-OV-3 ovarian
  TGI: > 100 µM
DLD-1 colon
  TGI: > 100 µM
